{"source": "ChEMBL document CHEMBL1671637", "about": "“Development, stability, and molecular mechanisms of macrolide resistance in Campylobacter jejuni” (2008)", "key": {"Campylobacter jejuni [1]": {"test_system": "Campylobacter jejuni", "test": "Antimicrobial activity against Campylobacter jejuni DC12 harboring protein L4 G74D mutant by agar dilution method", "type": "functional"}, "Campylobacter jejuni [2]": {"test_system": "Campylobacter jejuni", "test": "Antimicrobial activity against Campylobacter jejuni DC23 harboring protein L4 G74D mutant by agar dilution method", "type": "functional"}, "Campylobacter jejuni [3]": {"test_system": "Campylobacter jejuni", "test": "Antimicrobial activity against Campylobacter jejuni DC8 harboring protein L4 G74D mutant by agar dilution method", "type": "functional"}, "Campylobacter jejuni [4]": {"test_system": "Campylobacter jejuni", "test": "Antimicrobial activity against Campylobacter jejuni DC38 harboring protein L4 G74D mutant by agar dilution method", "type": "functional"}, "Campylobacter jejuni [5]": {"test_system": "Campylobacter jejuni", "test": "Antimicrobial activity against Campylobacter jejuni DC33 harboring 23S rRNA A2074G mutant by agar dilution method", "type": "functional"}, "Campylobacter jejuni [6]": {"test_system": "Campylobacter jejuni", "test": "Antimicrobial activity against Campylobacter jejuni DC26 infected in 15 days old chicken by agar dilution method in presence of food with tylosin", "type": "functional"}, "Campylobacter jejuni [7]": {"test_system": "Campylobacter jejuni", "test": "Antimicrobial activity against Campylobacter jejuni DC26 harboring protein L4 G74D mutant by agar dilution method", "type": "functional"}, "Campylobacter jejuni [8]": {"test_system": "Campylobacter jejuni", "test": "Antimicrobial activity against Campylobacter jejuni JL292 selected at 4 to 16 times MIC after 3 to 4 days by agar dilution method", "type": "functional"}, "Campylobacter jejuni [9]": {"test_system": "Campylobacter jejuni", "test": "Antimicrobial activity against Campylobacter jejuni JL288 harboring 23S rRNA A2074C mutant selected at 4 to 16 times MIC after 3 to 4 days by agar dilution method", "type": "functional"}, "Campylobacter jejuni [10]": {"test_system": "Campylobacter jejuni", "test": "Antimicrobial activity against Campylobacter jejuni JL307 harboring protein L22 with insertion of amino acid TSH at position 98 selected at 4 to 16 times MIC after 3 to 4 days by agar dilution method", "type": "functional"}, "Campylobacter jejuni [11]": {"test_system": "Campylobacter jejuni", "test": "Antimicrobial activity against Campylobacter jejuni DC5 harboring protein L4 G74D mutant by agar dilution method", "type": "functional"}, "Campylobacter jejuni [12]": {"test_system": "Campylobacter jejuni", "test": "Antimicrobial activity against Campylobacter jejuni DC34 harboring protein L4 G74D mutant by agar dilution method", "type": "functional"}, "Campylobacter jejuni [13]": {"test_system": "Campylobacter jejuni", "test": "Antimicrobial activity against Campylobacter jejuni JL300 harboring protein L22 with insertion of amino acid TSH at position 98 selected at 4 to 16 times MIC after 3 to 4 days by agar dilution method", "type": "functional"}, "Campylobacter jejuni [14]": {"test_system": "Campylobacter jejuni", "test": "Antimicrobial activity against Campylobacter jejuni DC30 by agar dilution method", "type": "functional"}, "Campylobacter jejuni [15]": {"test_system": "Campylobacter jejuni", "test": "Antimicrobial activity against Campylobacter jejuni JL308 harboring protein L22 with insertion of amino acid TSH at position 98 selected at 4 to 16 times MIC after 3 to 4 days by agar dilution method", "type": "functional"}, "Campylobacter jejuni [16]": {"test_system": "Campylobacter jejuni", "test": "Antimicrobial activity against Campylobacter jejuni JL277 selected at 4 to 16 times MIC after 3 to 4 days by agar dilution method", "type": "functional"}, "Campylobacter jejuni [17]": {"test_system": "Campylobacter jejuni", "test": "Antimicrobial activity against Campylobacter jejuni JL296 selected at 4 to 16 times MIC after 3 to 4 days by agar dilution method", "type": "functional"}, "Campylobacter jejuni [18]": {"test_system": "Campylobacter jejuni", "test": "Antimicrobial activity against Campylobacter jejuni DC1 by agar dilution method", "type": "functional"}, "Campylobacter jejuni [19]": {"test_system": "Campylobacter jejuni", "test": "Antimicrobial activity against Campylobacter jejuni DC4 by agar dilution method", "type": "functional"}, "Campylobacter jejuni [20]": {"test_system": "Campylobacter jejuni", "test": "Antimicrobial activity against Campylobacter jejuni DC32 harboring 23S rRNA A2074G mutant by agar dilution method", "type": "functional"}, "Campylobacter jejuni [21]": {"test_system": "Campylobacter jejuni", "test": "Antimicrobial activity against Campylobacter jejuni JL278 selected at 4 to 16 times MIC after 3 to 4 days by agar dilution method", "type": "functional"}, "Campylobacter jejuni [22]": {"test_system": "Campylobacter jejuni", "test": "Antimicrobial activity against Campylobacter jejuni DC17 harboring protein L4 G57D mutant by agar dilution method"}, "Campylobacter jejuni [23]": {"test_system": "Campylobacter jejuni", "test": "Antimicrobial activity against Campylobacter jejuni DC10 harboring protein L4 G57D mutant by agar dilution method", "type": "functional"}, "Campylobacter jejuni [24]": {"test_system": "Campylobacter jejuni", "test": "Antimicrobial activity against Campylobacter jejuni DC20 harboring protein L4 G74D mutant by agar dilution method", "type": "functional"}, "Campylobacter jejuni [25]": {"test_system": "Campylobacter jejuni", "test": "Antimicrobial activity against Campylobacter jejuni JL304 harboring protein L22 with insertion of amino acid TSH at position 98 selected at 4 to 16 times MIC after 3 to 4 days by agar dilution method", "type": "functional"}, "Campylobacter jejuni [26]": {"test_system": "Campylobacter jejuni", "test": "Antimicrobial activity against Campylobacter jejuni DC3 harboring 23S rRNA A2074G mutant by agar dilution method", "type": "functional"}, "Campylobacter jejuni [27]": {"test_system": "Campylobacter jejuni", "test": "Antimicrobial activity against Campylobacter jejuni DC31 harboring 23S rRNA A2074G mutant by agar dilution method", "type": "functional"}, "Campylobacter jejuni [28]": {"test_system": "Campylobacter jejuni", "test": "Antimicrobial activity against Campylobacter jejuni JL276 selected at 4 ug/ml after 3 to 4 days by agar dilution method", "type": "functional"}, "Campylobacter jejuni [29]": {"test_system": "Campylobacter jejuni", "test": "Antimicrobial activity against Campylobacter jejuni DC2 infected in 3 days old chicken by agar dilution method", "type": "functional"}, "Campylobacter jejuni [30]": {"test_system": "Campylobacter jejuni", "test": "Antimicrobial activity against Campylobacter jejuni DC13 harboring protein L4 G74D mutant by agar dilution method", "type": "functional"}, "Campylobacter jejuni [31]": {"test_system": "Campylobacter jejuni", "test": "Antimicrobial activity against Campylobacter jejuni JL289 harboring 23S rRNA A2074C mutant selected at 4 to 16 times MIC after 3 to 4 days by agar dilution method", "type": "functional"}, "Campylobacter jejuni [32]": {"test_system": "Campylobacter jejuni", "test": "Antimicrobial activity against Campylobacter jejuni JL301 harboring protein L22 with insertion of amino acid TSH at position 98 selected at 4 to 16 times MIC after 3 to 4 days by agar dilution method", "type": "functional"}, "Campylobacter jejuni [33]": {"test_system": "Campylobacter jejuni", "test": "Antimicrobial activity against Campylobacter jejuni JL283 selected at 4 to 16 times MIC after 3 to 4 days by agar dilution method", "type": "functional"}, "Campylobacter jejuni [34]": {"test_system": "Campylobacter jejuni", "test": "Antimicrobial activity against Campylobacter jejuni DC2 infected in 15 days old chicken by agar dilution method", "type": "functional"}, "Campylobacter jejuni [35]": {"test_system": "Campylobacter jejuni", "test": "Antimicrobial activity against Campylobacter jejuni JL297 selected at 4 to 16 times MIC after 3 to 4 days by agar dilution method", "type": "functional"}, "Campylobacter jejuni [36]": {"test_system": "Campylobacter jejuni", "test": "Antimicrobial activity against Campylobacter jejuni DC7 harboring protein L4 G74D mutant by agar dilution method", "type": "functional"}, "Campylobacter jejuni [37]": {"test_system": "Campylobacter jejuni", "test": "Antimicrobial activity against Campylobacter jejuni DC28 harboring protein L4 G74D mutant by agar dilution method", "type": "functional"}, "Campylobacter jejuni [38]": {"test_system": "Campylobacter jejuni", "test": "Antimicrobial activity against Campylobacter jejuni DC27 harboring protein L4 G74D mutant by agar dilution method", "type": "functional"}, "Campylobacter jejuni [39]": {"test_system": "Campylobacter jejuni", "test": "Antimicrobial activity against Campylobacter jejuni DC35 harboring protein L4 G74D mutant by agar dilution method", "type": "functional"}}, "data": [{"compound": "CC[C@H]1OC(=O)[C@H](C)[C@@H](O[C@H]2C[C@@](C)(OC)[C@@H](O)[C@H](C)O2)[C@H](C)[C@@H](O[C@@H]2O[C@H](C)C[C@H](N(C)C)[C@H]2O)[C@](C)(O)C[C@@H](C)C(=O)[C@H](C)[C@@H](O)[C@]1(C)O", "note": "[ERYTHROMYCIN]", "values": [{"measurement": "MIC", "setting": "Campylobacter jejuni [1]", "value": 64, "unit": "µg/mL"}, {"measurement": "MIC", "setting": "Campylobacter jejuni [2]", "value": 64, "unit": "µg/mL"}, {"measurement": "MIC", "setting": "Campylobacter jejuni [3]", "value": 32, "unit": "µg/mL"}, {"measurement": "MIC", "setting": "Campylobacter jejuni [4]", "value": 128, "unit": "µg/mL"}, {"measurement": "MIC", "setting": "Campylobacter jejuni [5]", "value": "> 512", "unit": "µg/mL"}, {"measurement": "MIC", "setting": "Campylobacter jejuni [6]", "value": 64, "unit": "µg/mL"}, {"measurement": "MIC", "setting": "Campylobacter jejuni [7]", "value": 64, "unit": "µg/mL"}, {"measurement": "MIC", "setting": "Campylobacter jejuni [8]", "value": 8, "unit": "µg/mL"}, {"measurement": "MIC", "setting": "Campylobacter jejuni [9]", "value": "> 512", "unit": "µg/mL"}, {"measurement": "MIC", "setting": "Campylobacter jejuni [10]", "value": 256, "unit": "µg/mL"}, {"measurement": "MIC", "setting": "Campylobacter jejuni [11]", "value": 8, "unit": "µg/mL"}, {"measurement": "MIC", "setting": "Campylobacter jejuni [12]", "value": 128, "unit": "µg/mL"}, {"measurement": "MIC", "setting": "Campylobacter jejuni [13]", "value": 128, "unit": "µg/mL"}, {"measurement": "MIC", "setting": "Campylobacter jejuni [14]", "value": 1, "unit": "µg/mL"}, {"measurement": "MIC", "setting": "Campylobacter jejuni [15]", "value": 64, "unit": "µg/mL"}, {"measurement": "MIC", "setting": "Campylobacter jejuni [16]", "value": 8, "unit": "µg/mL"}, {"measurement": "MIC", "setting": "Campylobacter jejuni [17]", "value": 8, "unit": "µg/mL"}, {"measurement": "MIC", "setting": "Campylobacter jejuni [18]", "value": 8, "unit": "µg/mL"}, {"measurement": "MIC", "setting": "Campylobacter jejuni [19]", "value": 8, "unit": "µg/mL"}, {"measurement": "MIC", "setting": "Campylobacter jejuni [20]", "value": "> 512", "unit": "µg/mL"}, {"measurement": "MIC", "setting": "Campylobacter jejuni [21]", "value": 8, "unit": "µg/mL"}, {"measurement": "MIC", "setting": "Campylobacter jejuni [22]", "value": 8, "unit": "µg/mL"}, {"measurement": "MIC", "setting": "Campylobacter jejuni [23]", "value": 16, "unit": "µg/mL"}, {"measurement": "MIC", "setting": "Campylobacter jejuni [24]", "value": 16, "unit": "µg/mL"}, {"measurement": "MIC", "setting": "Campylobacter jejuni [25]", "value": 256, "unit": "µg/mL"}, {"measurement": "MIC", "setting": "Campylobacter jejuni [26]", "value": "> 512", "unit": "µg/mL"}, {"measurement": "MIC", "setting": "Campylobacter jejuni [27]", "value": "> 512", "unit": "µg/mL"}, {"measurement": "MIC", "setting": "Campylobacter jejuni [28]", "value": 16, "unit": "µg/mL"}, {"measurement": "MIC", "setting": "Campylobacter jejuni [29]", "value": 32, "unit": "µg/mL"}, {"measurement": "MIC", "setting": "Campylobacter jejuni [30]", "value": 32, "unit": "µg/mL"}, {"measurement": "MIC", "setting": "Campylobacter jejuni [31]", "value": "> 512", "unit": "µg/mL"}, {"measurement": "MIC", "setting": "Campylobacter jejuni [32]", "value": 512, "unit": "µg/mL"}, {"measurement": "MIC", "setting": "Campylobacter jejuni [33]", "value": 64, "unit": "µg/mL"}, {"measurement": "MIC", "setting": "Campylobacter jejuni [34]", "value": 32, "unit": "µg/mL"}, {"measurement": "MIC", "setting": "Campylobacter jejuni [35]", "value": 8, "unit": "µg/mL"}, {"measurement": "MIC", "setting": "Campylobacter jejuni [36]", "value": 8, "unit": "µg/mL"}, {"measurement": "MIC", "setting": "Campylobacter jejuni [37]", "value": 8, "unit": "µg/mL"}, {"measurement": "MIC", "setting": "Campylobacter jejuni [38]", "value": 64, "unit": "µg/mL"}, {"measurement": "MIC", "setting": "Campylobacter jejuni [39]", "value": 128, "unit": "µg/mL"}]}]}
